This is an account of results in patent EP4781984A1 (Beyang Therapeutics Co., Ltd., priority 2023, dated 2025).

By IC50 is commonly meant the concentration at which inhibition is half-maximal. What is called fraction unbound is the share of the substance not bound to proteins or other matrix. Read a high fraction unbound as weak binding. The solubility is the concentration that dissolves in the medium under given conditions. A higher solubility goes with much dissolved substance.

One data set addresses T1, VEGFR2 (Homo sapiens, UniProt P35968).
T1 construct: purchased Carna 08-191
The data set can be described thus: Kinase inhibitory activity, Mobility Shift Assay (VEGFR2). In kind it is biochemical. The procedure: (§1) Assay for Inhibitory Activity of Compounds Against VEGFR and EGFR Kinases
(§2) This assay directly monitors the inhibitory activity of compounds on kinase phosphorylation by measuring non-phosphorylated and phosphorylated substrates in the kinase reaction using Mobility Shift Assays/IMAP™ analysis. Table 2. Reagents and Instruments
(§3) Kinase and DTT were added to 1X kinase buffer to form a 2.5X kinase solution; 10 µL of the 2.5X kinase solution was transferred to a 384-well reaction plate, and 1X kinase buffer was added to the negative control wells. The plate was incubated at room temperature for 10 minutes; FAM-labeled peptide, MgCl2, ATP, and other reagents were added to 1X kinase buffer to form a 2.5X substrate solution; 10 µL of the above 2.5X substrate solution was transferred to the 384-well reaction plate; the plate was incubated at 28°C for varying times, and then 25 µL of stop solution was added to the 384-well reaction plate to terminate the reaction. Conversion rate data were read on a CaliperEZ Reader II. […] IC50 values were fitted using XLFit excel add-in version 5.4.0.8. Y = Bottom + (Top−Bottom)/(1 + […]) [formula]
(§4) X is the log value of compound concentration, Y is the inhibition rate (% inhibition).

Another data set has as its target T2, EGFR (Homo sapiens, UniProt P00533).
T2 construct: purchased Carna 08-115
In words: Kinase inhibitory activity, Mobility Shift Assay (EGFR). The data set is classed as biochemical. The method in brief:
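Each kinase pre-incubated 10 min at room temperature, then FAM-labelled peptide with MgCl2 and ATP added; reaction at 28 °C for kinase-dependent times before stop. Substrate conversion read by mobility shift; IC50 from a four-parameter fit of % inhibition against log concentration.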

A further data set concerns melanin. In words: Compound binding to melanin. The data set is classed as in vitro ADME. The settings on record: cuttlefish (Sepia officinalis), melanin suspension (1 mg/mL), percentage of free drug (not bound to melanin), 2 µM compound, melanin 1 mg/mL in PBS pH 7.4, 37°C. In short, it runs like this: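 Compound at 2 µM final incubated with 1 mg/mL Sepia melanin in PBS pH 7.4, 37°C, 2 hours with shaking; blank in PBS with 0.1% BSA. Supernatant concentration by LC-MS/MS. Fb = 100 − (Ctest/Ccontrol) × 100%.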

The next data set deals with T3, VEGFR1 (Homo sapiens, UniProt P17948).
T3 construct: purchased Invitrogen PR6731B
The data set can be described thus: Kinase inhibitory activity, Mobility Shift Assay (VEGFR1). In kind it is biochemical. The method, then:
as §1, §2, §3, §4

The target of the next data set is T4, VEGFR3 (Homo sapiens, UniProt P35916).
T4 construct: purchased Invitrogen PV4129
The data set can be described thus: Kinase inhibitory activity, Mobility Shift Assay (VEGFR3). In kind it is biochemical. The method, then:
as §1, §2, §3, §4

Data set [1] in a line: Thermodynamic solubility test. The data set is classed as physicochemical. The settings on record: buffer solution, aqueous buffer, thermodynamic from solid; thermodynamic solubility, room temperature, 8 hours shaking; buffers pH 2.0, 6.5, 7.4 used, pH of the tabulated value not given. In short, it runs like this:
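Samples sonicated 10 min, shaken 8 h at room temperature, re-sonicated and centrifuged at 13000 rpm for 15 min. Supernatant recentrifuged and analysed by LC-MS, with concentrations quantified against a 3–5 point calibration curve.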

The nature of data set [2]: Ophthalmic formulations based on polyethylene glycol series vehicles: composition and state (Example 7). The data set is classed as physicochemical. The settings on record: Table 15: 10 mg/mL; Polyethylene glycol 400 10, Hydroxypropyl-β-cyclodextrin 10, Gellan Gum Gelrite 0.3, Poloxamer 188 1, Tris solution and Citric acid. The method in brief:
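Compound was dissolved, or nearly dissolved, in PEG 400 by sonication (heated to 50 °C if needed), then mixed into Tris-HCl buffer containing hydroxypropyl-β-cyclodextrin, poloxamer 188 and gellan gum or another viscosity modifier. Physical state was scored visually as solution, near-clear solution, suspension or gel.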

Data set [3] has as its target T5, VEGFR2 autophosphorylation (pVEGFR2) in HUVEC cells (Homo sapiens, UniProt P35968).
T5 construct: endogenous in cells; host or cells: HUVEC
The data set can be described thus: Inhibition of VEGF-induced VEGFR2 phosphorylation in HUVEC cells (ELISA). The data set is classed as cell-based. The settings on record: 50 ng/mL human VEGF, compound 1 hour. From the text:
Assay for Compound Inhibition of VEGFR2 Phosphorylation in HUVEC Cells
VEGF is a potent growth factor that promotes angiogenesis and vascular permeability. Vascular endothelial growth factor receptor 2 (VEGFR2) is the primary receptor for VEGF-induced endothelial cell signaling. Upon ligand binding, VEGFR2 undergoes autophosphorylation and is activated. The primary function from VEGFR2 signaling is to induce blood vessel formation during development and after tissue injury, and to bypass blocked vessels. Pathologically, VEGF and VEGFR2 are involved in tumor angiogenesis and vascular leakage. They are considered major players in many different cancers and ocular diseases accompanied by pathological neovascularization. This assay uses ELISA to measure the compound's ability to inhibit VEGF-induced VEGFR2 autophosphorylation (pVEGFR2) in HUVEC cells. Table 7. Reagents and Instruments
Before cell seeding, cells reached 60%-80% confluency in cell culture flasks. The cell suspension was diluted with pre-warmed complete medium to 4.5×10^6 cells/mL. 80 microliters of cell suspension was added to all wells of a 96-well cell plate (Corning-3599); incubated overnight at 37°C and 5% CO2. Compound powder was dissolved in DMSO to 10 mM and stored in a nitrogen cabinet. Compound dilution master plate: In a 96-well V-bottom plate (Axygen- WIPP02280), reference compound Ponatinib or test compound concentrations were added, starting from 5 mM (5 microliters of 10 mM compound solution plus 5 microliters DMSO) with 3-fold serial dilutions for a total of 8 concentration points. […] 20 microliters of diluted compound was transferred from the intermediate plate to the cell plate. The cell plate was then incubated at 37°C and 5% CO2 for 1 hour. […] It was gently shaken for 30 seconds, and the absorbance was measured within 30 minutes using a SpectraMax® 340 PC 384 Absorbance Microplate Reader, reading the optical density value at 450 nm. […]
All other values are expressed as a percentage of these controls (inhibition rate). […]
Background: An ELISA detects its analyte on a solid surface through an enzyme-linked reagent.

In brackets after ≈: the same amount, converted by molar mass.

T1 sequence (P35968 20-1356): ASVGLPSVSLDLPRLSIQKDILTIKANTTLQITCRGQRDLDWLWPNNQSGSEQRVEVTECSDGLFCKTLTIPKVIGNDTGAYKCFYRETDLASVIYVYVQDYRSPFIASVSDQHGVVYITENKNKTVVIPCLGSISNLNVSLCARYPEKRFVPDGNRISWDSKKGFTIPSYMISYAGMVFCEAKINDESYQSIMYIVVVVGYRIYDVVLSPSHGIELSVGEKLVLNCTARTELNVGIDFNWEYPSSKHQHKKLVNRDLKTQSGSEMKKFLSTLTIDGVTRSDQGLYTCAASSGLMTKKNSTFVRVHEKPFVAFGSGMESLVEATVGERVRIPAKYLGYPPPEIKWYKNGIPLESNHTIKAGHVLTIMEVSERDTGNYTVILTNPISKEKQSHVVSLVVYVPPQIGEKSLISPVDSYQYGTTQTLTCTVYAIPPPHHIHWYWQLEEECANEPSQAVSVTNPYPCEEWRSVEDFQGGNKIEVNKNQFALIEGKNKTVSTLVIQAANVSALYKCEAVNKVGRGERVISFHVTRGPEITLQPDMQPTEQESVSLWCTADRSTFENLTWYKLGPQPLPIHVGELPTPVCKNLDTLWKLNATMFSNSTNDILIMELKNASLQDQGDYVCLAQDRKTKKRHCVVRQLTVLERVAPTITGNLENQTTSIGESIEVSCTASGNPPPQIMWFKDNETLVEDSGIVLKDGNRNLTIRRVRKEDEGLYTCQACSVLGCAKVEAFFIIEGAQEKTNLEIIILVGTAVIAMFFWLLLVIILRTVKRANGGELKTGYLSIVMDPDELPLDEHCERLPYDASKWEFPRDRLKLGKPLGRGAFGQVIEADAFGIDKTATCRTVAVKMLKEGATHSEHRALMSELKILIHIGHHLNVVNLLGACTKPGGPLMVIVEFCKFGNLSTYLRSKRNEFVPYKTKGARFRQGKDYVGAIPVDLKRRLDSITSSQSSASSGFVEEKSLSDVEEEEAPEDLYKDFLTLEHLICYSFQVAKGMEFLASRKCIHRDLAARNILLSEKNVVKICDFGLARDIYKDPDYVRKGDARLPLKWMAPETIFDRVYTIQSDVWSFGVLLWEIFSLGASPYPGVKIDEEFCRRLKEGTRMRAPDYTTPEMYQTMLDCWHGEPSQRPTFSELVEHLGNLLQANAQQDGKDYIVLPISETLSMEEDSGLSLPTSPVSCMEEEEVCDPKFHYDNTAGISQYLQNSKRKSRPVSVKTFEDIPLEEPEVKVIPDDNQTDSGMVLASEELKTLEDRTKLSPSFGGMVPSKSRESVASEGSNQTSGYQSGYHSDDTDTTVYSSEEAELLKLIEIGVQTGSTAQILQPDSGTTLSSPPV
T3 sequence (P17948 27-1338): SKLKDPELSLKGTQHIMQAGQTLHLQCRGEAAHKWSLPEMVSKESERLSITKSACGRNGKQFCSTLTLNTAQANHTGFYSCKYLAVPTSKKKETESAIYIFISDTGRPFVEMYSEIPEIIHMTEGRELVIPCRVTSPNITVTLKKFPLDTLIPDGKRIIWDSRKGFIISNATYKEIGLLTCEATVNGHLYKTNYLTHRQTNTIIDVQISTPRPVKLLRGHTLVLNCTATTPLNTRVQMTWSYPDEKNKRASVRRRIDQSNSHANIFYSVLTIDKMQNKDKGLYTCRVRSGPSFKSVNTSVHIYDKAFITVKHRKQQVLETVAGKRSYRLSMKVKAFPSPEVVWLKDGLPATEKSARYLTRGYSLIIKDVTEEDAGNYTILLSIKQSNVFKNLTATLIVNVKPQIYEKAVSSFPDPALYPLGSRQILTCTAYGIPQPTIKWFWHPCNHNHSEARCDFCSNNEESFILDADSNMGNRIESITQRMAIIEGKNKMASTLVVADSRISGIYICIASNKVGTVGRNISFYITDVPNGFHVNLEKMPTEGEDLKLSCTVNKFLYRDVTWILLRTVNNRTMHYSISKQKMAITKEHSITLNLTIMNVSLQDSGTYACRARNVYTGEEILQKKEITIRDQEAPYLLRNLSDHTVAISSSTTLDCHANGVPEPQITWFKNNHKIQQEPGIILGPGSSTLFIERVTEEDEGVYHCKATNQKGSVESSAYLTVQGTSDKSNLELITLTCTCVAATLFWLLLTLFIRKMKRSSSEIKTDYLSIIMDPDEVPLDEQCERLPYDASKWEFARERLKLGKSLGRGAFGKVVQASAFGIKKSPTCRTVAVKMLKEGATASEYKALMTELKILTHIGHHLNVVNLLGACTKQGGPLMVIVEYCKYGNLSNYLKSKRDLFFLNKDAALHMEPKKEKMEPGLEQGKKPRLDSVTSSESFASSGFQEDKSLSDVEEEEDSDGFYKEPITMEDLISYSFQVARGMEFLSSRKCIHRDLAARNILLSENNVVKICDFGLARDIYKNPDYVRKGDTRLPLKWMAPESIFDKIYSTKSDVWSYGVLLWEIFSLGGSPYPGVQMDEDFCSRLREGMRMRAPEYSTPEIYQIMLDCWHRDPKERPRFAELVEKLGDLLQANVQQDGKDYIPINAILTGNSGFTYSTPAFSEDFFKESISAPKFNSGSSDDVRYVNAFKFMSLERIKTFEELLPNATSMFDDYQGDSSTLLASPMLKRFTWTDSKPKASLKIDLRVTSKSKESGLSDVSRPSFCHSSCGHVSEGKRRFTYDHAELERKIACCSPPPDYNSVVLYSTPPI
T4 sequence (P35916 25-1363): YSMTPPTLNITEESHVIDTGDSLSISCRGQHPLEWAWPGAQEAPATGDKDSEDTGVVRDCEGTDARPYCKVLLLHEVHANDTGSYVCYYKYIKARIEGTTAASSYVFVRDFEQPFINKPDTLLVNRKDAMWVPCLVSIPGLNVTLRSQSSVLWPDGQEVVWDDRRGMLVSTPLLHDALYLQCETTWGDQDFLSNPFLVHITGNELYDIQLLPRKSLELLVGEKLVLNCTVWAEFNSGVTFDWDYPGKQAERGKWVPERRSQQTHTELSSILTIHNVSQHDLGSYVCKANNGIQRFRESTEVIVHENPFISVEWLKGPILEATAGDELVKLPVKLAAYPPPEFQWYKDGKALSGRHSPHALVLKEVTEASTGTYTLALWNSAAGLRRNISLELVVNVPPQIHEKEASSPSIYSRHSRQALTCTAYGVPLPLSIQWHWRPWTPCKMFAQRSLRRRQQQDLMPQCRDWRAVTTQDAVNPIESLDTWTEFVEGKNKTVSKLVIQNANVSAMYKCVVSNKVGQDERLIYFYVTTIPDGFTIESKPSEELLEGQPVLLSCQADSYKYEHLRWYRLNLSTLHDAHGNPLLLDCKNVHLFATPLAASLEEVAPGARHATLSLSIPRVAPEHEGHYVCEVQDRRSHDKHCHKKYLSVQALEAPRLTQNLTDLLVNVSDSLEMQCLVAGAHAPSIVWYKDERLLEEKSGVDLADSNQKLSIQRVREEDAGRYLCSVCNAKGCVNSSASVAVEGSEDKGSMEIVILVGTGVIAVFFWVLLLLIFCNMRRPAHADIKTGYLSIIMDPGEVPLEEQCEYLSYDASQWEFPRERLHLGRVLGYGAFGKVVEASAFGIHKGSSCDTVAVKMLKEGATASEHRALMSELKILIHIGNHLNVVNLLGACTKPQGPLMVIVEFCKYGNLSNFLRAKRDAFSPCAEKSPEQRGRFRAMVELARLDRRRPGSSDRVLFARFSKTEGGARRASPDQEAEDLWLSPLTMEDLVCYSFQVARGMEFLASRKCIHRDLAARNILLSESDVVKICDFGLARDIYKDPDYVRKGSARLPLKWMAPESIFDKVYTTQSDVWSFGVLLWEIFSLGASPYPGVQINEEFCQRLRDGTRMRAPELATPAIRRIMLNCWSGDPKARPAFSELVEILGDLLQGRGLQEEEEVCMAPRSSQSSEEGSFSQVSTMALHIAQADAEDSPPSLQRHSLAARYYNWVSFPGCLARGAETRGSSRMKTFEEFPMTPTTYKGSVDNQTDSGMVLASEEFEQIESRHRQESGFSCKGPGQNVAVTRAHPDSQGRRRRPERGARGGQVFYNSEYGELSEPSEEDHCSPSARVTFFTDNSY
T5 sequence (P35968 20-1356): as the sequence (P35968 20-1356) above

Consider `O=C(O)c1ccccc1Sc1ccn2c(/C=C/c3ccccn3)ncc2c1` [Compound I-28, 2-({3-[(E)-2-(pyridin-2-yl)ethenyl]imidazo[1,5-a]pyridin-7-yl}thio)benzoic acid], for which the IC50 on VEGFR2 was more than 100 nM; at EGFR it was not above 0.6 µM; on VEGFR1 it was more than 100 nM; at VEGFR3, more than 100 nM. In the data set with melanin, this compound returned a fraction unbound at 2 h, 2 µM of more than 0.05.

In the case of `CNC(=O)c1ccccc1Sc1ccc2c(/C=C/c3ccc(OC[C@H]4CCN(C)C4)cn3)n[nH]c2c1` [Compound I-37], the half-maximal inhibitory concentration (IC50) at VEGFR2 was not above 1 nM; on EGFR, 6 to 60 µM; at VEGFR1, not above 1 nM; on VEGFR3 it was 1 to 10 nM. Besides, in the data set on melanin, the fraction unbound at 2 h, 2 µM was 0.01 to 0.05.

In data set [1], `CNC(=O)c1ccccc1Sc1ccc2c(/C=C/c3ccc(OCC4CCCN4C)cn3)n[nH]c2c1` (centres unmarked) [Compound I-2, N-methyl-2-((3-((E)-2-(5-((1-methylpyrrolidin-2-yl)methoxy)pyridin-2-yl)ethenyl)-1H-indazol-6-yl)thio)benzamide] showed a solubility at 8 h of 28.8 µg/mL (≈ 57.6 µM). Also, the IC50 was not above 1 nM on VEGFR2, 6 to 60 µM at EGFR, not above 1 nM on VEGFR1 and 1 to 10 nM at VEGFR3. In the data set with melanin, this compound yielded an unbound share (fraction unbound) at 2 h, 2 µM of 0.01 to 0.05.

For `CCN(CC)CCc1ccc(/C=C/c2n[nH]c3cc(Sc4ccccc4C(=O)NC4CC4)ccc23)nc1` [Compound I-77, N-cyclopropyl-2-({3-[(E)-2-{5-[2-(diethylamino)ethyl]pyridin-2-yl}ethenyl]-1H-indazol-6-yl}sulfanyl)benzamide], the half-maximal inhibitory concentration (IC50) is not above 1 nM at VEGFR2, 6 to 60 µM on EGFR and not above 1 nM in data set [3]. This compound returned a fraction unbound at 2 h, 2 µM in the data set with melanin of 0.01 to 0.05. In data set [2], the “State Description: pH” value is on record as approximately 5.5. The “State Description: state” value in data set [2] is “gel”.

For the compound `CNC(=O)c1ccccc1Sc1ccc2c(cnn2-c2ccc(OCCN3CCCC3)cn2)c1` [Compound I-29, N-methyl-2-[(1-{5-[2-(pyrrolidin-1-yl)ethoxy]pyridin-2-yl}-1H-indazol-5-yl)sulfanyl]benzamide], the half-maximal inhibitory concentration (IC50) is more than 100 nM on VEGFR2, more than 60 µM at EGFR, more than 100 nM on VEGFR1 and more than 100 nM on VEGFR3.

In data set [1], `CNC(=O)c1ccccc1Sc1ccc2c(/C=C/c3ccc(OCC4CCNC4)cn3)n[nH]c2c1` (centres unmarked) [Compound I-7] returned a solubility at 8 h of 294 µg/mL (≈ 605 µM). For the same compound, the IC50 at VEGFR2 is 1 to 10 nM; on EGFR, 6 to 60 µM; at VEGFR1 it was not above 1 nM; at VEGFR3 it was 1 to 10 nM. The unbound share (fraction unbound) at 2 h, 2 µM with melanin is more than 0.05.

The compound `CNC(=O)c1ccccc1Sc1ccc2c(/C=C/c3ccc(OCC4CCN(C)C4)cn3)n[nH]c2c1` (centres unmarked) [Compound I-1] gave a solubility at 8 h in data set [1] of 14.2 µg/mL (≈ 28.4 µM). The IC50 at VEGFR2 was not above 1 nM; on EGFR it was 6 to 60 µM; on VEGFR1, not above 1 nM; on VEGFR3, not above 1 nM. For the same compound, in the data set with melanin, the fraction unbound at 2 h, 2 µM is more than 0.05.

Compound `CNC(=O)c1ccccc1Sc1ccc2c(NC(=O)NCCN3CCN(C)CC3)n[nH]c2c1` [Compound I-31] registered a solubility at 8 h in data set [1] of 542 µg/mL (≈ 1160 µM). The 50% inhibitory concentration (IC50) was more than 100 nM at VEGFR2, more than 60 µM on EGFR, more than 100 nM at VEGFR1 and more than 100 nM on VEGFR3. The compound also gave an unbound share (fraction unbound) at 2 h, 2 µM in the data set on melanin of 0.01 to 0.05.

Take `CCNC(=O)c1cc(F)ccc1Sc1ccc2c(/C=C/c3ccc(CN(CC)CC)cn3)n[nH]c2c1` [Compound I-88]: in data set [1], the concentration in solution (solubility at 8 h) came to 546 µg/mL (≈ 1080 µM). For the same compound, the values for the IC50 (at VEGFR2; on EGFR; in data set [3]) were 1 to 10 nM, 6 to 60 µM and not above 1 nM, respectively. The compound also yielded a fraction unbound at 2 h, 2 µM in the data set on melanin of more than 0.05.

With `CNC(=O)c1ccccc1Sc1ccc2c(/C=C/c3ccccn3)ncn2c1` [Compound I-26, N-methyl-2-({1-[(E)-2-(pyridin-2-yl)ethenyl]imidazo[1,5-a]pyridin-6-yl}thio)benzamide], the solubility at 8 h in data set [1] is 142 µg/mL (≈ 367 µM). Besides, the concentration for half-maximal inhibition (IC50) is more than 100 nM on VEGFR2, more than 60 µM at EGFR, more than 100 nM at VEGFR1 and more than 100 nM on VEGFR3. This compound returned an unbound share (fraction unbound) at 2 h, 2 µM in the data set on melanin of 0.01 to 0.05.

For `CNC(=O)c1ccccc1Sc1ccn2c(/C=C/c3ccccn3)ncc2c1` [Compound I-27, N-methyl-2-({3-[(E)-2-(pyridin-2-yl)ethenyl]imidazo[1,5-a]pyridin-7-yl}thio)benzamide], the IC50 on VEGFR2 is more than 100 nM; on EGFR, 6 to 60 µM; at VEGFR1, more than 100 nM; at VEGFR3, more than 100 nM. The compound also yielded a fraction unbound at 2 h, 2 µM with melanin of 0.01 to 0.05.

Regarding `CNC(=O)c1ccccc1Sc1ccc2c(/C=C/c3ccc(OCCN4CCN(C)CC4)cn3)n[nH]c2c1` [Compound I-4], the solubility at 8 h in data set [1] worked out at 413 µg/mL (≈ 781 µM). Further, the IC50 on VEGFR2, on VEGFR1 and at VEGFR3 was not above 1 nM in each case. The fraction unbound at 2 h, 2 µM with melanin was more than 0.05.
